From publication PMC10243363 (ACS chemical neuroscience, 2022)
Where a name gives a salt, the structure may show the parent alone. Read-outs that look alike come from different tables or passages of the source.

Legend:
DOR = DOR (Mus musculus, UniProt P32300); test: [35S]-GTPγS binding assay, mDOR-CHO membrane; type: biochemical; details: for DOR %Emax: %Emax = 100 defined using 5 μM SNC80; for DOR %Emax / EC50: mean ± SEM; for EC50: read-out: DOR EC50
mice [1] = test: Warm-water tail immersion; type: in vivo, mouse; details: for Antinociceptive effect (%MPE) in single-dose screening: 20 min, vs vehicle; for Antinociception potency ED50 (95% CL): 20 min after injection; for Time of peak antinociceptive effect: time-course study; for Blocking of the antinociception of 0.1 mg/kg NMF by selective antagonist: nor-BNI, β-FNA 10 mg/kg s.c. 24 h prior, NTI 15 mg/kg s.c. 30 min prior
MOR [2] = molecular target: T1, MOR (Mus musculus, UniProt P42866); test: [35S]-GTPγS binding assay, mMOR-CHO membrane; type: biochemical; details: for MOR %Emax: %Emax = 100 defined using Emax of 3 μM DAMGO; for MOR %Emax / EC50: mean ± SEM; for EC50: read-out: MOR EC50
KOR [3] = molecular target: T2, KOR (Mus musculus, UniProt P33534); test: Competitive radioligand binding assay, KOR; details: for Selectivity D/K: ratio of Ki DOR/KOR; for Selectivity M/K: ratio of Ki MOR/KOR
KOR [4] = molecular target: T2, KOR; test: [35S]-GTPγS binding assay, mKOR-CHO membrane; type: biochemical; details: mean ± SEM; for KOR %Emax: %Emax = 100 defined using 5 μM U50,488H; for EC50: read-out: KOR EC50
MOR [5] = molecular target: T1, MOR; test: Competitive radioligand binding assay, MOR; details: ratio of Ki DOR/MOR
[6] = cited from earlier work
[7] = cited from earlier work; remark: listed apart in the source
[8] = Caco-2 permeability assay; details: human, Caco-2
mice [9] = test: Tolerance and cross tolerance; details: day 5; 0.1 mg/kg NMF vs 10 mg/kg morphine
mice [10] = test: Spontaneous locomotor activity; details: 30 min
Caco-2 cell monolayer = test: Caco-2 permeability assay; details: 10 μM; ± SEM
mice [11] = test: Respiration by whole-body plethysmography; type: in vivo, mouse; details: 0.1 mg/kg
rats = details: rat, in vivo, iv
[12] = Weight change under chronic administration; details: 10 mg/kg s.c. twice daily, mice
[13] = 0.003 mg/kg; cited from earlier work
[14] = 0.03 mg/kg; cited from earlier work
mice [15] = details: cited from earlier work
monkeys = details: 0.001 mg/kg; cited from earlier work

Compound	DOR %Emax (DOR)	EC50 (DOR) [nM]	MOR %Emax (MOR [2]) [%]	EC50 (MOR [2]) [nM]	Selectivity D/K (KOR [3])	Selectivity M/K (KOR [3])	KOR %Emax (KOR [4]) [%]	EC50 (KOR [4]) [nM]	Selectivity D/M (MOR [5])	also measured
Cl.O=C(/C=C/c1ccoc1)N[C@H]1CC[C@@]2(O)[C@H]3Cc4ccc(O)c5c4[C@@]2(CCN3CC2CC2)[C@H]1O5 [Compound 9, (2E)-N-[6α-17-(Cyclopropylmethyl)-3,14-dihydroxy-4,5α-epoxy-morphinan-6-yl]-3-(3-furanyl)-2-propenamide hydrochloride]	108 ± 6%	83.6 ± 28.8	25.9 ± 1.0	8.41 ± 0.98	10	0.6	73.7 ± 2.5	15.3 ± 1.9	16	Antinociceptive effect (%MPE) in single-dose screening (mice [1]; 10 mg/kg s.c., mice): no significant increase of %MPE
mitragynine										PPB [6]: 90-99%
CC(CCc1ccccc1)NCC(O)c1ccc(O)c(C(N)=O)c1 (stereo not drawn) [Labetalol]										%fa: extent of absorption in humans [7]: 90%; %fa: extent of absorption in humans ([7]; listed as labetalol): 90%; Papp A→B at 10 µM [8]: 18.5 ± 0.3 ×10⁻⁶ cm/s; Papp B→A at 10 µM [8]: 34.2 ± 0.4 ×10⁻⁶ cm/s
CN(C(=O)/C=C/c1ccoc1)[C@@H]1CC[C@@]2(O)[C@H]3Cc4ccc(O)c5c4[C@@]2(CCN3CC2CC2)[C@H]1O5.Cl [Compound 11, (2E)-N-[6β-17-(Cyclopropylmethyl)-3,14-dihydroxy-4,5α-epoxy-morphinan-6-yl]-3-(3-furanyl)-N-methyl-2-propenamide hydrochloride]										Duration of antinociception (mice [1]; 0.1 mg/kg s.c., mice): approximately 3 hours; Calculated ED90 of antinociception (mice [1]; mice, s.c.): 0.1 mg/kg; Antinociception potency ED50 (95% CL) (mice [1]; mice, s.c.): 0.037 (0.014 - 0.096) mg/kg; Time of peak antinociceptive effect (mice [1]; s.c., mice): around 0.5 h; Antinociceptive effect in morphine-tolerated mice (cross tolerance) (mice [9]): retained a higher antinociceptive effect than morphine; Activity-reducing (sedative) effects on locomotor activity (mice [10]; 0.1 mg/kg or 0.5 mg/kg s.c.): no significant activity-reducing effects; Hyperactivity in locomotor activity test (mice [10]; s.c.): no significant hyperactivity; B-A Permeability (Caco-2 cell monolayer): 31.8 ± 0.8 x10^−6 cm/s; Effects on respiration (frequency, minute volume, tidal volume) (mice [11]): no significant effects on the respiration; Reinforcing effect in self-administration (number of infusions vs saline) (rats): non-reinforcer
Cl.O=C(/C=C/c1ccoc1)N[C@@H]1CC[C@@]2(O)[C@H]3Cc4ccc(O)c5c4[C@@]2(CCN3CC2CC2)[C@H]1O5 [Compound 10, (2E)-N-[6β-17-(Cyclopropylmethyl)-3,14-dihydroxy-4,5α-epoxy-morphinan-6-yl]-3-(3-furanyl)-2-propenamide hydrochloride]	103 ± 11%	24.8 ± 4.7	40.8 ± 2.2	1.36 ± 0.14	26	1.8	95.2 ± 4.9	0.36 ± 0.02	15	Antinociception potency ED50 (95% CL) (mice [1]; mice, s.c.): 2.414 (1.720 - 3.388) mg/kg
COC(=O)/C=C/C(=O)N[C@@H]1CC[C@@]2(O)[C@H]3Cc4ccc(O)c5c4[C@@]2(CCN3CC2CC2)[C@H]1O5 [β-FNA, reference compound]										Blocking of the antinociception of 0.1 mg/kg NMF by selective antagonist (mice [1]): not able to block the antinociception
CN(C(=O)/C=C/c1ccoc1)[C@@H]1CC[C@@]2(O)[C@H]3Cc4cccc5c4[C@@]2(CCN3CC2CC2)[C@H]1O5.Cl [Compound 16, (2E)-N-[6β-17-(Cyclopropylmethyl)-4,5α-epoxy-14-hydroxy-morphinan-6-yl]-3-(3-furanyl)-N-methyl-2-propenamide hydrochloride]	107 ± 8%	2100 ± 400	17.5 ± 4.4	1800 ± 1100	343	42	94.6 ± 2.9	59 ± 7.1	8.1	Antinociception potency ED50 (95% CL) (mice [1]; mice, s.c.): 1.610 (1.057 - 2.452) mg/kg
CN1CC[C@]23c4c5ccc(O)c4O[C@H]2[C@@H](O)C=C[C@H]3[C@H]1C5 [Morphine, reference compound]										Duration of antinociception (mice [1]; 10 mg/kg s.c., mice): approximately 3 hours; Time of peak antinociceptive effect (mice [1]; s.c., mice): around 0.5 h; Weight change [12]: lost weight significantly after only one day
Oc1ccc2c3c1O[C@H]1c4[nH]c5c(c4C[C@@]4(O)[C@@H](C2)N(CC2CC2)CC[C@]314)C[C@@]1(O)[C@H]2Cc3ccc(O)c4c3[C@@]1(CCN2CC1CC1)[C@H]5O4 [nor-BNI, reference compound]										Blocking of the antinociception of 0.1 mg/kg NMF by selective antagonist (mice [1]): able to reduce the antinociception
CN(C(=O)/C=C/c1ccoc1)[C@@H]1CC[C@@]2(O)[C@H]3Cc4ccc(O)c5c4[C@@]2(CCN3CC2CC2)[C@H]1O5 [Compound 12, (2E)-N-[6β-17-(Cyclopropylmethyl)-3,14-dihydroxy-4,5α-epoxy-morphinan-6-yl]-3-(3-furanyl)-N-methyl-2-propenamide hydrochloride]	moderate-to-high efficacy									Action time [13]: 3 to 4 h; Emax (DOR; read-out: DOR %Emax): 65.7 ± 6.4%; Emax (MOR [2]; read-out: MOR %Emax): 30.3 ± 3.7%; Action time [14]: less than 2 hours; Antinociceptive effect in morphine-tolerated mice (mice [15]): retained its antinociceptive effect; Respiratory depression (monkeys): did not induced respiratory depression
CC[C@@H]1CN2CCc3c([nH]c4cccc(OC)c34)[C@H]2C[C@@H]1/C(=C\OC)C(=O)OC [speciociliatine]										PPB [6]: 90-99%
CN(C(=O)/C=C/c1ccoc1)[C@H]1CC[C@@]2(O)[C@H]3Cc4cccc5c4[C@@]2(CCN3CC2CC2)[C@H]1O5.Cl [Compound 15, (2E)-N-[6a-17-(Cyclopropylmethyl)-4,5a-epoxy-14-hydroxy-morphinan-6-yl]-3-(3-furanyl)-N-methyl-2-propenamide hydrochloride]	108 ± 7%	242 ± 28	55.8 ± 2.9	132 ± 10	249	21	98.4 ± 2.4	2.52 ± 0.38	12	Antinociception potency ED50 (95% CL) (mice [1]; mice, s.c.): 0.341 (0.196 - 0.604) mg/kg
CC(C)NCC(O)COc1cccc2ccccc12 (stereo not drawn) [Propranolol]										Papp A→B at 10 µM [8]: 23.8 ± 0.4 ×10⁻⁶ cm/s; Papp B→A at 10 µM [8]: 25.6 ± 0.7 ×10⁻⁶ cm/s
Cl.O=C(/C=C/c1ccoc1)N[C@@H]1CC[C@@]2(O)[C@H]3Cc4cccc5c4[C@@]2(CCN3CC2CC2)[C@H]1O5 [Compound 14, (2E)-N-[6β-17-(Cyclopropylmethyl)-4,5α-epoxy-14-hydroxy-morphinan-6-yl]-3-(3-furanyl)-2-propenamide hydrochloride]	107 ± 13%	1500 ± 140	27.7 ± 1.1	167 ± 23	345	26	97.9 ± 2.4	46 ± 6.8	14	Antinociception potency ED50 (95% CL) (mice [1]; mice, s.c.): 3.827 (1.224 -11.97) mg/kg
CNC(=C[N+](=O)[O-])NCCSCc1ccc(CN(C)C)o1 [Ranitidine]										%fa: extent of absorption in humans [7]: 50%; Papp A→B at 10 µM [8]: 0.5 ± 0.02 ×10⁻⁶ cm/s
Oc1ccc2c3c1O[C@H]1c4[nH]c5ccccc5c4C[C@@]4(O)[C@@H](C2)N(CC2CC2)CC[C@]314 [NTI, reference compound]										Blocking of the antinociception of 0.1 mg/kg NMF by selective antagonist (mice [1]): able to reduce the antinociception
Cl.O=C(/C=C/c1ccoc1)N[C@H]1CC[C@@]2(O)[C@H]3Cc4cccc5c4[C@@]2(CCN3CC2CC2)[C@H]1O5 [Compound 13, (2E)-N-[6α-17-(Cyclopropylmethyl)-4,5α-epoxy-14-hydroxy-morphinan-6-yl]-3-(3-furanyl)-2-propenamide hydrochloride]	102 ± 8%	714 ± 87	22.8 ± 2.1	283 ± 49	1.7	1.9	103 ± 2	135 ± 25	0.9	Antinociceptive effect (%MPE) in single-dose screening (mice [1]; 10 mg/kg s.c., mice): absence of antinociception
